Assay results taken from ChEMBL document CHEMBL1240444, “Aconitum and Delphinium alkaloids of curare-like activity. QSAR analysis and molecular docking of alkaloids into AChBP” (Eur J Med Chem, 2010).

Key:
[1] = Selectivity ratio of binding affinity for alpha7 nAChR to muscle nAChR; type: tissue-based; settings: Muscle tissue
[2] = Selectivity ratio of binding affinity for alpha7 nAChR to alpha4beta2 nAChR
[3] = Selectivity ratio of binding affinity for alpha7 nAChR to alpha3beta2

## CCN1C[C@]2(COC(=O)c3ccccc3N3C(=O)C[C@H](C)C3=O)CC[C@H](OC)[C@@]34[C@@H]5C[C@H]6[C@H](OC)[C@@H]5[C@](O)(C[C@@H]6OC)[C@](O)([C@@H](OC)[C@H]23)[C@@H]14
[1]
  Ratio: 10000
[2]
  Ratio: 1000
[3]
  Ratio: 100
